Data taken from patent publication US20260151391A1, “TREATMENT OF MITOCHONDRIAL DISEASES WITH sGC STIMULATORS” (Tisento Therapeutics Inc., priority 2022, published 2026).

System: memory disruption induced by MK-801 in male Long Evans rats
Test: Novel Object Recognition (NOR) test, memory disruption induced by MK-801
Format: in vivo, rat
Details: any dose tested, oral
Description: In the present study, a memory saving model was used. MK-801 (Dizocilpine), an uncompetitive antagonist of the NMDA receptor was used to cause deficit of recognition memory. sGC stimulators were evaluated for their efficacy to prevent memory impairment induced by MK-801.
Adult male Long-Evans rats (275-299 gram at arrival from Envigo, Indianapolis, IN) were used in this study. Rats were placed in the experimental rooms and assigned unique identification numbers (tail marks). Rats were housed 2 per cage in polycarbonate cages with filter tops and acclimated for at least 7 days prior to testing. […]
NOR test was conducted in an open-field arena (40×40 cm) placed in a sound-attenuated room under dimmed lighting. […] All training and testing trials were video-taped and scored by an observer blind to treatments.
On Days 1 and 2, rats were allowed to freely explore the arena (no objects inside) for a 5-minute habituation period. […] Each rat was placed in the arena facing the same direction at the same position, and the time spent actively exploring the objects during a 3-minute training period (T1) was recorded. […] Each rat was placed back into the test arena in the presence of one familiar object and one novel object for 5 minutes, and the time spent exploring both objects was recorded. […]

Cc1cc(F)c(Cc2nc(-c3ncc(F)c(O)n3)cn3ccnc23)cc1F [Compound I-14, 5-fluoro-2-(8-(2,5-difluoro-4-methylbenzyl)imidazo[1,2-a]pyrazin-6-yl)pyrimidin-4-ol]
obvious side effects in NOR study: None of the rats in this study showed obvious side effects
